# Measured values as given in US20260015350A1, “AZAQUINAZOLINE PAN-KRAS INHIBITORS” (Mirati Therapeutics, Inc., priority 2022, published 2026).
# Assays:
# KRas^WT = target: T1, KRas^WT (Homo sapiens, UniProt P01116); experiment: KRas binding assay (TR-FRET tracer displacement), KRas WT; settings: single point, 10 nM compound, TR-FRET
# T1 construct: Biotinylated KRas (corresponding to amino acids 1-169, produced at Accelegan Inc.); biotin (biotinylated); purchased Accelegan Inc
# KRas^G12A = target: T2, KRas^G12A (Homo sapiens, UniProt P01116, G12A); experiment: KRas binding assay (TR-FRET tracer displacement), KRas G12A; settings: single point, 10 nM compound, TR-FRET
# T2 construct: Biotinylated KRas (corresponding to amino acids 1-169, produced at Accelegan Inc.); biotin (biotinylated); purchased Accelegan Inc
# KRas^G12C = target: T3, KRas^G12C (Homo sapiens, UniProt P01116, G12C); experiment: KRas binding assay (TR-FRET tracer displacement), KRas G12C; settings: single point, 10 nM compound, TR-FRET
# T3 construct: Biotinylated KRas (corresponding to amino acids 1-169, produced at Accelegan Inc.); biotin (biotinylated); purchased Accelegan Inc
# KRas^G12D = target: T4, KRas^G12D (Homo sapiens, UniProt P01116, G12D); experiment: KRas binding assay (TR-FRET tracer displacement), KRas G12D
# T4 construct: Biotinylated KRas (corresponding to amino acids 1-169, produced at Accelegan Inc.); biotin (biotinylated); purchased Accelegan Inc
# KRas^G12R = target: T5, KRas^G12R (Homo sapiens, UniProt P01116, G12R); experiment: KRas binding assay (TR-FRET tracer displacement), KRas G12R
# T5 construct: Biotinylated KRas (corresponding to amino acids 1-169, produced at Accelegan Inc.); biotin (biotinylated); purchased Accelegan Inc
# KRas^G12S = target: T6, KRas^G12S (Homo sapiens, UniProt P01116, G12S); experiment: KRas binding assay (TR-FRET tracer displacement), KRas G12S; settings: single point, 10 nM compound, TR-FRET
# T6 construct: Biotinylated KRas (corresponding to amino acids 1-169, produced at Accelegan Inc.); biotin (biotinylated); purchased Accelegan Inc
# KRas^G12V = target: T7, KRas^G12V (Homo sapiens, UniProt P01116, G12V); experiment: KRas binding assay (TR-FRET tracer displacement), KRas G12V
# T7 construct: Biotinylated KRas (corresponding to amino acids 1-169, produced at Accelegan Inc.); biotin (biotinylated); purchased Accelegan Inc
# KRas^G13D = target: T8, KRas^G13D (Homo sapiens, UniProt P01116, G13D); experiment: KRas binding assay (TR-FRET tracer displacement), KRas G13D; settings: single point, 10 nM compound, TR-FRET
# T8 construct: Biotinylated KRas (corresponding to amino acids 1-169, produced at Accelegan Inc.); biotin (biotinylated); purchased Accelegan Inc
# KRas^Q61H = target: T9, KRas^Q61H (Homo sapiens, UniProt P01116, Q61H); experiment: KRas binding assay (TR-FRET tracer displacement), KRas Q61H; settings: single point, 10 nM compound, TR-FRET
# T9 construct: Biotinylated KRas (corresponding to amino acids 1-169, produced at Accelegan Inc.); biotin (biotinylated); purchased Accelegan Inc
# [1] = tested on: KRas-mediated phosphorylation of ERK in MKN1 cells; experiment: Inhibition of KRas-mediated phosphorylation of ERK (Cisbio HTRF pERK), MKN1 cells; type: cell-based; settings: Homo sapiens, MKN-1
# In short: (§1)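 Overnight culture at 37° C./5% CO2 in RPMI containing 10% FBS, seeded 6,000 cells per well, preceded the assay. A covered 4-hour incubation at room temperature followed, then HTRF signal for phosphorylated ERK was measured.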
# [2] = tested on: KRas-mediated phosphorylation of ERK in PSN1 cells; experiment: Inhibition of KRas-mediated phosphorylation of ERK (Cisbio HTRF pERK), PSN1 cells; type: cell-based; settings: Homo sapiens
# In short: as §1
# [3] = tested on: KRas-mediated phosphorylation of ERK in AsPC-1 cells; experiment: Inhibition of KRas-mediated phosphorylation of ERK (Cisbio HTRF pERK), AsPC-1 cells; type: cell-based; settings: Homo sapiens, ASPC1, AsPC-1 cells; HTRF pERK
# In short: (§2)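 Compound treatment lasts 3 hrs on 6,000 seeded cells, testing 10 doses from a 10 uM top concentration in 3-fold decrements at 0.8% final DMSO. Trametinib at 0.2 uM defines the Min signal. Detection is HTRF on cold-lysed cell extracts.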
# [4] = tested on: KRas-mediated phosphorylation of ERK in H727 cells; experiment: Inhibition of KRas-mediated phosphorylation of ERK (Cisbio HTRF pERK), H727 cells; type: cell-based; settings: Homo sapiens, NCI-H727, H727 cells; HTRF pERK
# In short: as §2
# [5] = tested on: KRas-mediated phosphorylation of ERK in A549 cells; experiment: Inhibition of KRas-mediated phosphorylation of ERK (Cisbio HTRF pERK), A549 cells; type: cell-based; settings: Homo sapiens, A549, 3 h, single point, 100 nM compound, 3 hrs
# In short: (§3)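 Phosphorylated ERK was quantified by HTRF using d2-conjugate and Cryptate antibodies added to lysates for 2 hrs at room temperature.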
# [6] = tested on: KRas-mediated phosphorylation of ERK in H460 cells; experiment: Inhibition of KRas-mediated phosphorylation of ERK (Cisbio HTRF pERK), H460 cells; type: cell-based; settings: Homo sapiens; for inhibition at 0.1 µM: NCI-H460, 3 h, single point, 100 nM compound, 3 hrs
# In short: as §2
# [7] = tested on: KRas-mediated phosphorylation of ERK in HCT116 cells; experiment: Inhibition of KRas-mediated phosphorylation of ERK (Cisbio HTRF pERK), HCT116 cells; type: cell-based; settings: Homo sapiens; for inhibition at 0.1 µM: HCT-116, 3 h, single point, 100 nM compound, 3 hrs
# In short: as §3
# [8] = tested on: KRas-mediated phosphorylation of ERK in H358 cells; experiment: Inhibition of KRas-mediated phosphorylation of ERK (Cisbio HTRF pERK), H358 cells; type: cell-based; settings: Homo sapiens, NCI-H358, 3 h, single point, 100 nM compound, 3 hrs
# In short: as §2
# T9 sequence (P01116 1-169 isoform P01116-2 Q61H): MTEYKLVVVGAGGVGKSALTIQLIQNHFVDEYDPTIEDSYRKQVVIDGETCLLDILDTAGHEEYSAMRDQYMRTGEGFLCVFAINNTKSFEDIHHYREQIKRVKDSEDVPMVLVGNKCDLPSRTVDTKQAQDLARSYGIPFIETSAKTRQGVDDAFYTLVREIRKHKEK
# T7 sequence (P01116 1-169 isoform P01116-2 G12V): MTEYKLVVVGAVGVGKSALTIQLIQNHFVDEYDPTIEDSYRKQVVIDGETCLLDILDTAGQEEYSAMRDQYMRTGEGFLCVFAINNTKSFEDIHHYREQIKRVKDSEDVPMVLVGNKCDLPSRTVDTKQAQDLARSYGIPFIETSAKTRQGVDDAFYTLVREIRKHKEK
# T3 sequence (P01116 1-169 isoform P01116-2 G12C): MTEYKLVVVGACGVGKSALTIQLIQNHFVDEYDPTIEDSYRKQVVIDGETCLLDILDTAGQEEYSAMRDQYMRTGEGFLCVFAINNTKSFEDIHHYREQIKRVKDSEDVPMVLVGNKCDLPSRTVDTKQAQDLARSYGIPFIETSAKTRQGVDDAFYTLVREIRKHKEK
# T6 sequence (P01116 1-169 isoform P01116-2 G12S): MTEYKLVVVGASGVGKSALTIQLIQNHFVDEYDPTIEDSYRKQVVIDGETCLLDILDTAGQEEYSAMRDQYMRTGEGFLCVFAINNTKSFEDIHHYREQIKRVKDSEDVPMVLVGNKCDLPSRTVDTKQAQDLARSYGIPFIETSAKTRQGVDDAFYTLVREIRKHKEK
# T8 sequence (P01116 1-169 isoform P01116-2 G13D): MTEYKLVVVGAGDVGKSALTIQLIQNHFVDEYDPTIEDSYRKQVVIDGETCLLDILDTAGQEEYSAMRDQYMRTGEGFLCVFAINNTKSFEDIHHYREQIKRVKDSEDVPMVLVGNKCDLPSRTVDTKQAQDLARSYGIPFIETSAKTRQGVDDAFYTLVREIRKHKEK
# T2 sequence (P01116 1-169 isoform P01116-2 G12A): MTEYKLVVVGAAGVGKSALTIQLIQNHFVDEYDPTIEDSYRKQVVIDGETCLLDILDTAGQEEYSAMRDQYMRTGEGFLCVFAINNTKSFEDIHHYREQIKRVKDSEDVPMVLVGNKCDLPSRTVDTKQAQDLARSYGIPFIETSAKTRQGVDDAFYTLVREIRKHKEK
# T5 sequence (P01116 1-169 isoform P01116-2 G12R): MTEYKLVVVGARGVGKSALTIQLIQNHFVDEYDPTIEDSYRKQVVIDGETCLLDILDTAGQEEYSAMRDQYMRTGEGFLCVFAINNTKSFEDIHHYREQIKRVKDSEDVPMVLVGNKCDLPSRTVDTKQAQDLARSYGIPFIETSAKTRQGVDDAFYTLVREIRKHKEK
# T4 sequence (P01116 1-169 isoform P01116-2 G12D): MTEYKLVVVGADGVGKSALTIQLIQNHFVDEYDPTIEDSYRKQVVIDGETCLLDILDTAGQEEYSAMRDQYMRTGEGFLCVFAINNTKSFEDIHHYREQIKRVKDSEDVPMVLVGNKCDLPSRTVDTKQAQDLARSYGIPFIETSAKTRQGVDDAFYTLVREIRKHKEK
# T1 sequence (P01116 1-169 isoform P01116-2): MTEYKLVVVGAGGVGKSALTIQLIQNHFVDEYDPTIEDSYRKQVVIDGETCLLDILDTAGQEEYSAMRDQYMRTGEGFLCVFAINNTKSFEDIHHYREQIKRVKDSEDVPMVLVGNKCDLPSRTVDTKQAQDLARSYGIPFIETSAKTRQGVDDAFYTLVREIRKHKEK
inhibition at 0.01 µM (KRas^WT),inhibition at 0.01 µM (KRas^G12A),inhibition at 0.01 µM (KRas^G12C),IC50 (KRas^G12D),IC50 (KRas^G12R),inhibition at 0.01 µM (KRas^G12S),IC50 (KRas^G12V),inhibition at 0.01 µM (KRas^G13D),inhibition at 0.01 µM (KRas^Q61H),IC50 [1],IC50 [2],IC50 [3],IC50 [4],"IC50 ([6]; NCI-H460, HTRF pERK)","IC50 ([7]; HCT-116, HTRF pERK)",SMILES,inhibition at 0.1 µM [5],inhibition at 0.1 µM [6],inhibition at 0.1 µM [7],inhibition at 0.1 µM [8]
76%,76%,84%,9 nM,< 2 nM,85%,4 nM,85%,85%,2 nM,4410 nM,79 nM,24 nM,–,–,"CCc1c(F)ccc2cc(O)cc(-c3ncc4c(N5CC6CC(O)C(C6)C5)nc(OC[C@]56CCCN5[C@H](COC(=O)N(C)C)CC6)nc4c3F)c12 (stereo partly drawn) [Example 707, ((3S,7aR)-7a-(((7-(8-ethyl-7-fluoro-3-hydroxynaphthalen-1-yl)-8-fluoro-4-(6-hydroxy-3-azabicyclo[3.2.1]octan-3-yl)pyrido[4,3-d]pyrimidin-2-yl)oxy)methyl)hexahydro-1H-pyrrolizin-3-yl)methyl dimethylcarbamate]",71%,84%,47%,88%
91%,80%,95%,< 2 nM,< 2 nM,94%,< 2 nM,97%,99%,3 nM,253 nM,63 nM,53 nM,–,–,"CCc1c(F)ccc2cc(O)cc(-c3ncc4c(N5CCCC6(C5)NC(=O)NC6=O)nc(OC[C@]56CCCN5[C@H](COC(=O)N(C)C)CC6)nc4c3F)c12 (stereo partly drawn) [Example 709, ((3S,7aR)-7a-(((4-(2,4-dioxo-1,3,7-triazaspiro[4.5]decan-7-yl)-7-(8-ethyl-7-fluoro-3-hydroxynaphthalen-1-yl)-8-fluoropyrido[4,3-d]pyrimidin-2-yl)oxy)methyl)hexahydro-1H-pyrrolizin-3-yl)methyl dimethylcarbamate]",62%,88%,65%,101%
85%,89%,94%,< 2 nM,2 nM,95%,< 2 nM,85%,87%,95 nM,> 10000 nM,26 nM,89 nM,193 nM,760 nM,"CCc1c(F)ccc2cc(O)cc(-c3ncc4c(N5CCCn6nc(C(=O)N(C)C)cc6C5)nc(OC[C@]56CCCN5[C@H](COC(=O)N(C)C)CC6)nc4c3F)c12 [Example 714, ((3S,7aR)-7a-(((4-(2-(dimethylcarbamoyl)-7,8-dihydro-4H-pyrazolo[1,5-a][1,4]diazepin-5(6H)-yl)-7-(8-ethyl-7-fluoro-3-hydroxynaphthalen-1-yl)-8-fluoropyrido[4,3-d]pyrimidin-2-yl)oxy)methyl)hexahydro-1H-pyrrolizin-3-yl)methyl dimethylcarbamate]",16%,–,–,73%
